For data set [1] the following is noted: at 20° C.; cited from earlier work.
A short description of data set [2]: Solubility of flumioxazin in organic solvents.
Data set [3] is described as follows: Chemical degradation of flumioxazin in contact with aqueous salt solution.
Data set [4] in a line: Adsorption of glyphosate by colloidal hydrophilic silica (HPLC of supernatant). It counts as physicochemical. Conditions: 23% a.e. aqueous solution of glyphosate isopropylammonium salt, 20° C., 16 hours. The text has this:
Where the water-soluble active ingredient is a salt of the herbicide glyphosate, it was initially feared that addition of colloidal hydrophilic silica might reduce herbicidal effectiveness by adsorption of glyphosate to the silica. A test was therefore conducted to determine the degree of adsorption of glyphosate by the highest concentration of colloidal hydrophilic silica likely to be used in a composition of the invention, i.e. 5% by weight, and by even higher concentrations.
The procedure for this test is to add a weighed amount of Aerosil™ COK-84 colloidal hydrophilic silica to a measured volume of glyphosate isopropylammonium salt solution of known concentration (23% a.e. by weight) in a stoppered glass bottle and agitate gently at a temperature of 20° C. for 16 hours. The solution is then centrifuged to deposit the silica, leaving a clear supematant. The supernatant is analyzed for glyphosate by HPLC. The amount of adsorption is calculated from the reduction in glyphosate concentration in the supernatant solution by comparison with the initial concentration.

In data set [5] the test system is inutade (Polygonum longisetum). Briefly: Greenhouse tank-mix study, herbicidal effectiveness (Table 1). It counts as in vivo. The note with it: glyphosate 2160 g a.e./ha + flumioxazin 0 g/ha. The text has this: (§1) Tank-mix studies have shown that addition of a relatively small amount of flumioxazin to glyphosate alleviates both the above-mentioned disadvantages. Data from a tank-mix study in a greenhouse illustrating the benefit of simultaneous application of glyphosate+flumioxazin over a higher rate of glyphosate alone are presented in Table 1. Herbicide rates are given in grams per hectare (g/ha); rates shown for glyphosate (which was applied in this study as the isopropylammonium salt) are expressed as acid equivalent (a.e.). Herbicidal effectiveness is measured as percent inhibition by comparison with untreated plants, based on visual assessment by a technician trained in the art of making such assessments, at four times, namely 3, 7, 20 and 27 days after treatment (DAT). Data are presented for two dicotyledonous weed species, “inutade” (Polygonum longisetum) and “tsuyukusa” (Commelina communis), that are known to tolerate high rates of glyphosate.

Data set [6] relates to tsuyukusa (Commelina communis). The data set is described as above. It counts as in vivo. Conditions: glyphosate 2160 g a.e./ha + flumioxazin 0 g/ha.
From the text: as §1

The values below come from patent US6569809B1, “Package-mix agricultural chemical compositions having improved stability” (Monsanto Company, priority 1999, dated 2003).

As for `C#CCN1C(=O)COc2cc(F)c(N3C(=O)C4=C(CCCC4)C3=O)cc21` [flumioxazin, 2-[7-fluoro-3,4-dihydro-3-oxo-4-(2-propynyl)-2H-1,4-benzoxazin-6-yl]-4,5,6,7-tetrahydro-1H-isoindole-1,3(2H)-dione], in data set [1], the specific gravity was 1.51. For the same compound, the “solubility in organic solvent” value is “rather soluble” in data set [2] (benzyl acetate) and “only very sparingly soluble” in data set [2] (phenylxylylethane). In addition, in data set [3] (benzyl acetate as the organic solvent, compared with phenylxylylethane), the “rate of chemical degradation” value is recorded as “much more rapid”. Further, the chemical degradation result in data set [3] (composition of the invention, aqueous phase mono(isopropylammonium) glyphosate pH about 4.5 to about 5, even at elevated temperatures) is given as “insignificant”; in data set [3] (exposed to a concentrated aqueous salt solution such as a solution of glyphosate salt for prolonged periods) it was “undergo chemical degradation”. For the same compound, the rate of degradation entry in data set [3] (pH of the aqueous phase raised (addition of a base or dibasic salt of glyphosate)) is “significant increase”.

In the case of `O=C(O)CNCP(=O)(O)O` [glyphosate, N-phosphonomethylglycine], the glyphosate adsorption in data set [4] (silica concentration 10%) came to 12%; in data set [4] (silica concentration 20%), 40%. Further, the percent inhibition in data set [5] (3 DAT) was 0%; in data set [5] (7 DAT), 0%; in data set [5] (20 DAT), 45%; in data set [5] (27 DAT), 70%; in data set [6] (3 DAT), 0%; in data set [6] (7 DAT) it was 0%. For the same compound, the percent inhibition in data set [6] (20 DAT) is given as 50%; in data set [6] (27 DAT) it was 62%.
